Data published in BindingDB's records for doi:10.1002/1439-7633(20021004)3:10 (Aventis Pharmaceuticals, 2002).
pKi: −log10 of the molar value. Where “and” joins values, the source holds several entries; their conditions need not be identical. Equal values may be shown once.

Biological target: T1, Alpha-1B adrenergic receptor (Rattus norvegicus, UniProt P15823)
T1 sequence (P15823 whole entry): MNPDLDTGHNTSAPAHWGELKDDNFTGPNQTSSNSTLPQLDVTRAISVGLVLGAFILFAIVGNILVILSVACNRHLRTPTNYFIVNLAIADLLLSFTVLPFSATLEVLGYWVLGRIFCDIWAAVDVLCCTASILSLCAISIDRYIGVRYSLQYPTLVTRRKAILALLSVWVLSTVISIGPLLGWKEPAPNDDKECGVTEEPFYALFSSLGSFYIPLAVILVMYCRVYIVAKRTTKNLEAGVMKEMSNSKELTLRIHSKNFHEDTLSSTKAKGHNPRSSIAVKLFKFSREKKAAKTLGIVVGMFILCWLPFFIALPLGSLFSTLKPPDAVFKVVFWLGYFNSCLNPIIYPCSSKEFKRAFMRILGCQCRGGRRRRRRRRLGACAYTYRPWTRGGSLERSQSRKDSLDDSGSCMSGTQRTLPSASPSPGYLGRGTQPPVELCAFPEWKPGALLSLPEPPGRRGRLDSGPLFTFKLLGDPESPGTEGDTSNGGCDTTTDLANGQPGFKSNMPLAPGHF
Assay: Binding Assay
Description: All rat alpha-1 adrenoceptor binding was performed by Hugo M. vargas, Karen M. Brooks and Lynn Laws-Ricker.

SMILES | pKi
OCC(CN1CCc2ccccc2C1)N1CCC(c2noc3cc(F)ccc23)CC1 (stereo not given) [Isoindoline, 26] | 7.72
OCC(CN1Cc2ccc(Cl)cc2C1)N1CCC(c2noc3cc(F)ccc23)CC1 (stereo not given) [Isoindoline, 13] | 7.92
OCC(CN1Cc2ccc(C(F)(F)F)cc2C1)N1CCC(c2noc3cc(F)ccc23)CC1 (stereo not given) [Isoindoline, 17] | 7.59
OCC(CN1Cc2ccc(F)cc2C1)N1CCC(c2noc3cc(F)ccc23)CC1 (stereo not given) [Isoindoline, 11] | 7.03
O=C1c2ccccc2CN1CC(CO)N1CCC(c2noc3cc(F)ccc23)CC1 (stereo not given) [Isoindoline, 23] | 8.39
COc1ccc2c(c1)CN(CC(CO)N1CCC(c3noc4cc(F)ccc34)CC1)C2 (stereo not given) [Isoindoline, 19] | 7.70

Results, then the molecule that gave them:

pKi | SMILES
6.63 | OCC(CN1Cc2cccc(F)c2C1)N1CCC(c2noc3cc(F)ccc23)CC1 (stereo not given) [Isoindoline, 12]
7.37 and 7.26 and 6.65 | OCC(CN1Cc2ccccc2C1)N1CCC(c2noc3cc(F)ccc23)CC1 (stereo not given) [Isoindoline, 9]
7.91 | Cc1cccc2c1CN(CC(CO)N1CCC(c3noc4cc(F)ccc34)CC1)C2 (stereo not given) [Isoindoline, 16]
7.76 | COc1cccc2c1CN(CC(CO)N1CCC(c3noc4cc(F)ccc34)CC1)C2 (stereo not given) [Isoindoline, 20]
